Experimental data: patent US20060135483A1, “Oxygen/nitrogen heterocycle inhibitors of tyrosine phosphatases” (priority 2004, published 2006)

Target: T1, PTP-1B (Homo sapiens, UniProt P18031)
T1 construct: PTP-1B (purified, 1 mg/mL) as a 1:250 dilution
T1 sequence (P18031 1-321 limits assumed): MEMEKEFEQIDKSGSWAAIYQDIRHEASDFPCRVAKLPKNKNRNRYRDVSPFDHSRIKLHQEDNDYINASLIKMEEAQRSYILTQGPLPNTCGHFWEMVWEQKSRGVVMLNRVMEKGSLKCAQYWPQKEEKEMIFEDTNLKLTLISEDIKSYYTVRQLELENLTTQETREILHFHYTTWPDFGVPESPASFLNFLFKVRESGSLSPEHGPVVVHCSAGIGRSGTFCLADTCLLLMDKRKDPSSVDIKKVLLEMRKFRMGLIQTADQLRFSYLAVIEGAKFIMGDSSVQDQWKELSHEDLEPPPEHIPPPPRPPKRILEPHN
Assay: pNPP assay for tyrosine phosphatase inhibitory activity
Type: biochemical
Conditions: pNPP substrate 10 mM, 30° C., 10 minutes, absorbance at 405 nm
Method: The compounds provided herein are evaluated for biological activity as inhibitors of PTP-1B using, for example, a pNPP assay. Such an assay can be used to screen compounds for tyrosine phosphatase inhibitory activity as shown in Example 39.
A 5× stock of pNPP (p-nitrophenol phosphate) substrate is prepared as 50 mM pNPP in assay buffer. Various tyrosine phosphatase solutions can be prepared as follows: • PTP-1B (purified, 1 mg/mL) as a 1:250 dilution (to a final concentration of 4:g/mL); • TC-PTP (NEB, 1000 units in 100:L) as a 1:50 dilution (to a final concentration of 2 U/10:L (4:g/mL)); • CD45 (Calbiochem, 20:g, 400 units in 100: L) as a 1 :50 dilution (to a final concentration of 0.8 U/10:L (4:g/mL)); • LAR (NEB, 1000 units in 200:L) as a 1:75 dilution (to a final concentration of 0.7 U/10:L (4:g/mL)); and • PTP-β (UBI, #14-350, 10,000 units, 40:g/571:L) as a 1:17.5 dilution (to a final concentration of 10 U/10:L (4:g/mL));
The compound to be tested is prepared as 1:16.7 and 1:50 dilutions from stock in a total volume of 1 00:M DMSO to give final concentrations of 626 and 200:M. The reaction mixtures are prepared in a 96-well microtiter plate (on ice) as 55:L assay buffer, 5:L of the diluted compound (to a final concentration of 31.3 and 10:M), 20:L of the pNPP substrate solution (to a final concentration of 10 mM) and 20:L PTPase in assay buffer. The reactants are mixed well, the plate placed in a water bath at 30° C. and incubated for 10 minutes. The reaction is then terminated by adding 1 OO:L of 2M K2CO3 per well, and the absorbance is measured at 405 nm by conventional means.
Unless otherwise indicated, this assay was used to determine activity for the selected compounds whose activity is recorded in Table 1 and Table 2.

Q: For COC(=O)c1ccc(CN(Cc2ccc(C(F)(F)P(=O)(O)O)cc2)c2nnc(-c3cccc(Oc4ccccc4)c3)o2)cc1 [4-({[4-(Difluoro-phosphono-methyl)-benzyl]-[5-(3-phenoxy-phenyl)-[1,3,4]oxadiazol-2-yl]-amino}-methyl)-benzoic acid methyl ester], which IC50 (Table 1) is on record?
A: 10000 to 100000 nM

Q: COC(=O)c1cccc(Oc2cccc(-c3nnc(N(Cc4ccc(C(F)(F)P(=O)(O)O)cc4)c4ccc(Cl)c(Cl)c4)o3)c2)c1 [Example 22, 3-[3-(5-{(3,4-Dichloro-phenyl)-[4-(difluoro-phosphono-methyl)-benzyl]-amino}-[1,3,4]oxadiazol-2-yl)-phenoxy]-benzoic acid methyl ester] was tested. Which IC50 (Table 1) did it give?
A: 1000 to 10000 nM

Q: How did the IC50 (Table 1) turn out when CCOP(=O)(OCC)C(F)(F)c1ccc(CN(c2ccc(Cl)c(Cl)c2)c2ncc(-c3ccc(S(C)(=O)=O)cc3)o2)cc1Br [Example 8, {[2-Bromo-4-({(3,4-dichloro-phenyl)-[5-(4-methanesulfonyl-phenyl)-oxazol-2-yl]-amino}-methyl)-phenyl]-difluoro-methyl}-phosphonic acid diethyl ester] was run?
A: 10000 to 100000 nM

Q: With COc1cccc(CN(Cc2ccc(C(F)(F)P(=O)(O)O)c(Br)c2)c2ncc(-c3ccc(S(C)(=O)=O)cc3)o2)c1 [[(2-Bromo-4-{[[5-(4-methanesulfonyl-phenyl)-oxazol-2-yl]-(3-methoxy-benzyl)-amino]-methyl}-phenyl)-difluoro-methyl]-phosphonic acid] as the compound, how does the IC50 (Table 2) read?
A: 100 to 500 nM

Q: O=C(O)C(Oc1cccc(-c2cnc(N(Cc3ccc(C(F)(F)P(=O)(O)O)c(Br)c3)c3ccc(Cl)c(Cl)c3)o2)c1)c1ccccc1 (stereo not shown) [Example 16, (3-{2-[[3-Bromo-4-(difluoro-phosphono-methyl)-benzyl]-(3,4-dichloro-phenyl)-amino]-oxazol-5-yl}-phenoxy)-phenyl-acetic acid] was tested. Which IC50 (Table 1) did it give?
A: < 100 nM

Q: For O=C(O)c1ccccc1-c1ccc(-c2cnc(N(Cc3ccc(C(F)(F)P(=O)(O)O)c(Br)c3)c3ccc(Cl)cc3)o2)cc1 [Example 29, 4′-{2-[[3-Bromo-4-(difluoro-phosphono-methyl)-benzyl]-(4-chlorophenyl)-amino]-oxazol-5-yl}-biphenyl-2-carboxylic acid], which IC50 (Table 2) is on record?
A: 100 to 500 nM

Q: For CC(C)(C)C(=O)OCOP(=O)(O)C(F)(F)c1ccc(CN(c2ccc(Cl)c(Cl)c2)c2ncc(-c3ccc(S(C)(=O)=O)cc3)o2)cc1Br [Example 11, 2,2-Dimethyl-propionic acid {[2-bromo-4-({(3,4-dichloro-phenyl)-[5-(4-methanesulfonyl-phenyl)-oxazol-2-yl]-amino}-methyl)-phenyl]-difluoro-methyl}-hydroxy-phosphinoyloxymethyl ester], which IC50 (Table 1) is on record?
A: 10000 to 100000 nM

Q: How did the IC50 (Table 2) turn out when O=C(O)c1ccccc1-c1ccc(-c2cnc(N(Cc3ccc(C(F)(F)P(=O)(O)O)c(Br)c3)c3ccccc3)o2)cc1 [Example 27, 4′-{2-[[3-Bromo-4-(difluoro-phosphono-methyl)-benzyl]-phenyl-amino]-oxazol-5-yl}-biphenyl-2-carboxylic acid] was run?
A: 100 to 500 nM

Q: How did the IC50 (Table 1) turn out when COC(=O)c1ccc(-c2cnc(N(Cc3ccc(C(F)(F)P(=O)(O)O)c(Br)c3)c3ccccc3)o2)cc1 [Example 4, 4-(2-{[3-Bromo-4-(difluoro-phosphono-methyl)-benzyl]-phenyl-amino}-oxazol-5-yl)-benzoic acid methyl ester] was run?
A: 1000 to 10000 nM

Q: How did the IC50 (Table 2) turn out when CN(Cc1ccc(C(F)(F)P(=O)(O)O)c(Br)c1)c1ncc(-c2ccc(-c3ccccc3C(=O)O)cc2)o1 [Example 26, 4′-{2-[[3-Bromo-4-(difluoro-phosphono-methyl)-benzyl]-methyl-amino]-oxazol-5-yl}-biphenyl-2-carboxylic acid] was run?
A: 500 to 1000 nM

Q: How did the IC50 (Table 2) turn out when O=C(O)c1ccccc1-c1ccc(-c2cnc(N(Cc3ccc(C(F)(F)P(=O)(O)O)c(Br)c3)c3ccc(F)cc3)o2)cc1 [Example 28, 4′-{2-[[3-Bromo-4-(difluoro-phosphono-methyl)-benzyl]-(4-fluorophenyl)-amino]-oxazol-5-yl}-biphenyl-2-carboxylic acid] was run?
A: 100 to 500 nM

Q: Which IC50 (Table 2) does the source give for CC(C)OC(=O)OC(C)OP(=O)(O)C(F)(F)c1ccc(CN(c2ccc(F)cc2)c2ncc(-c3ccc(S(C)(=O)=O)cc3)o2)cc1Br (stereo not shown) [{[2-Bromo-4-({(4-fluoro-phenyl)-[5-(4-methanesulfonyl-phenyl)-oxazol-2-yl]-amino}-methyl)-phenyl]-difluoro-methyl}-phosphonic acid mono-(1-isopropoxycarbonyloxy-ethyl) ester] here?
A: 10000 to 100000 nM

Q: How did the IC50 (Table 1) turn out when O=C(O)c1ccc(-c2cnc(N(Cc3ccc(C(F)(F)P(=O)(O)O)c(Br)c3)c3ccc(Cl)c(Cl)c3)o2)cc1 [Example 3, 4-{2-[[3-Bromo-4-(difluoro-phosphono-methyl)-benzyl]-(3,4-dichloro-phenyl)-amino]-oxazol-5-yl}-benzoic acid] was run?
A: < 100 nM

Q: How did the IC50 (Table 1) turn out when O=P(O)(O)C(F)(F)c1ccc(CN(c2ccc(Cl)c(Cl)c2)c2ncc(-c3ccccc3)o2)cc1Br [Example 1, [(2-Bromo-4-{[(3,4-dichloro-phenyl)-(5-phenyl-oxazol-2-yl)-amino]-methyl}-phenyl)-difluoro-methyl]-phosphonic acid] was run?
A: 1000 to 10000 nM

Q: How did the IC50 (Table 1) turn out when O=C(O)c1ccc(CN(Cc2ccc(C(F)(F)P(=O)(O)O)cc2)c2nnc(-c3cccc(Oc4ccccc4)c3)o2)cc1 [4-({[4-(Difluoro-phosphono-methyl)-benzyl]-[5-(3-phenoxy-phenyl)-[1,3,4]oxadiazol-2-yl]-amino}-methyl)-benzoic acid] was run?
A: 1000 to 10000 nM

Q: How did the IC50 (Table 2) turn out when CC(C)(C)C(=O)OCOP(=O)(OCOC(=O)C(C)(C)C)C(F)(F)c1ccc(CN(c2ccc(F)cc2)c2ncc(-c3ccc(S(C)(=O)=O)cc3)o2)cc1Br [Example 35, 2,2-Dimethyl-propionic acid {[2-bromo-4-({(4-fluoro-phenyl)-[5-(4-methanesulfonylphenyl)-oxazol-2-yl]-amino}-methyl)-phenyl]-difluoro-methyl}-(2,2-dimethyl-propionyloxymethoxy)-phosphinoyloxymethyl ester] was run?
A: 10000 to 100000 nM

Q: With NC(=O)c1ccc(-c2cnc(N(Cc3ccc(C(F)(F)P(=O)(O)O)c(Br)c3)c3ccc(F)cc3)o2)cc1 [Example 37, [(2-Bromo-4-{[[5-(4-carbamoyl-phenyl)-oxazol-2-yl]-(4-fluoro-phenyl)-amino]-methyl}-phenyl)-difluoro-methyl]-phosphonic acid] as the compound, how does the IC50 (Table 2) read?
A: 100 to 500 nM

Q: Which IC50 (Table 2) does the source give for CC(C)OC(=O)OC(C)OP(=O)(O)C(F)(F)c1ccc(CN(c2ccc(Cl)c(Cl)c2)c2ncc(-c3ccc(S(C)(=O)=O)cc3)o2)cc1Br (stereo not shown) [Example 33, {[2-Bromo-4-({(3,4-dichloro-phenyl)-[5-(4-methanesulfonyl-phenyl)-oxazol-2-yl]-amino}-methyl)-phenyl]-difluoro-methyl}-phosphonic acid mono-(1-isopropoxycarbonyloxy-ethyl) ester] here?
A: 10000 to 100000 nM

Q: Which IC50 (Table 2) does the source give for CS(=O)(=O)c1ccc(CN(Cc2ccc(C(F)(F)P(=O)(O)O)c(Br)c2)c2ncc(-c3ccc(S(C)(=O)=O)cc3)o2)cc1 [{[2-Bromo-4-({(4-methanesulfonyl-benzyl)-[5-(4-methanesulfonyl-phenyl)-oxazol-2-yl]-amino}-methyl)-phenyl]-difluoro-methyl}-phosphonic acid] here?
A: 500 to 1000 nM

Q: For CS(=O)(=O)c1ccc(-c2cnc(N(Cc3ccc(/C=C/C(=O)O)c(Br)c3)c3ccc(Cl)c(Cl)c3)o2)cc1 [3-[2-Bromo-4-({(3,4-dichloro-phenyl)-(5-(4-methanesulfonyl-phenyl)-oxazol-2-yl]-amino}-methyl)-phenyl]-acrylic acid], which IC50 (Table 1) is on record?
A: 10000 to 100000 nM

Q: For O=C(O)c1ccccc1-c1ccc(-c2cnc(N(Cc3ccc(C(F)(F)P(=O)(O)O)c(Br)c3)c3ccc(Cl)c(Cl)c3)o2)cc1 [Example 17, 4′-{2-[[3-Bromo-4-(difluoro-phosphono-methyl)-benzyl]-(3,4-dichloro-phenyl)-amino]-oxazol-5-yl}-biphenyl-2-carboxylic acid], which IC50 (Table 1) is on record?
A: 100 to 500 nM

Q: With O=C(O)c1ccc(-c2cnc(N(Cc3ccc(C(F)(F)P(=O)(O)O)c(Br)c3)c3ccccc3)o2)cc1 [Example 5, 4-(2-{[3-Bromo-4-(difluoro-phosphono-methyl)-benzyl]-phenyl-amino}-oxazol-5-yl)-benzoic acid] as the compound, how does the IC50 (Table 1) read?
A: 100 to 500 nM
